Legend:
[1] = system: HCMV AD169 virus; assay: HCMV AD169 CPE Assay (Example A); assay type: cell-based; details: Human betaherpesvirus 5, AD169, MRC5, 216 h, MRC-5 cells, 9 days, MTS readout
Description: This assay format is a CPE (Cytopathic effect)-based assay that determines the ability of compounds to protect cells against infection with a dye reduction assay (MTS of CellTiter 96® AQueous Non-Radioactive Cell Proliferation Assay from Promega). The conversion of MTS into aqueous, soluble formazan is performed by dehydrogenase enzymes found in metabolically active cells. The quantity of formazan product determined by absorbance at 490 nm is directly proportional to the number of living cells in culture.
(§1) Serial dilutions of the DMSO stock compound solution are performed using DMSO in columns 2-11 and 14-23. DMSO alone is present in columns 1, 12, 13 and 24. Four μL of the DMSO serial dilutions is obtained and diluted using […] of D-MEM 5% FBS culture medium to obtain 4% DMSO (7×).
To perform the assay, 10 µL of the freshly prepared 4% DMSO serial dilution plate is added to the assay plate containing 40 μL of MRC-5 cells plated the day before (10000 cells per well). Twenty μL of diluted virus is added to columns 2-12 and 14-24 and only D-MEM 5% FBS medium to uninfected control (columns 1 and 13) for a final DMSO concentration of 0.6%.
The virus dilution is based on the amount of virus required to obtain a Signal-to-Background of 3-4 (generally between 0.1 and 1 μL of virus stock per well or MOI=0.05). The assay plates are incubated at 37° C. with 5% CO2 for 9 days in order to obtain 100% CPE in infected control without compound (columns 12 and 24). Ten μL of freshly mixed room temperature MTS/PMS (1:20 v/v) is added and the plates are incubated at 37° C. with 5% CO2 for 4-5 h (until signal saturation at 2.3 in the 100% CPE control). The plates are sealed with TopSeal for biosafety and read on the Envision plate reader (Perkin-Elmer) or equivalent at OD 492 nm.

[2] = system: HCMV AD169-Bac-Luc2 US2-US6 clone #26 virus; assay: HCMV AD169-Bac Luciferase Assay (Example B); assay type: cell-based, Human Cytomegalovirus; details: Human betaherpesvirus 5, AD169, MRC5, 72 h, read-out: EC50 Example B
Description: This assay format is a luciferase reporter-based assay that determines the ability of compounds to inhibit the infection by detecting a luciferase signal decrease following the addition of BIGlo substrate (preparation indicated below) directly in the culture media. Mono-oxygenation of luciferin is catalyzed by luciferase in the presence of Mg2+, ATP and molecular oxygen. The generation of oxyluciferin is a luminescent reaction that can be detected with the proper platereader. Human Cytomegalovirus AD169-Bac is obtained from Dr. Thomas Shenk at Princeton University (reference paper Yu et al. 2002—J. Virol. 76 (5):2316-2328, herein incorpoarated by reference) and modified by recombineering to introduce a humanized firefly luciferase gene (Luc2) at the US2-US6 position in the HCMV genome. The virus is expanded in MRC-5 cells.
as §1
To perform the assay, 7 μL of the freshly prepared 4% DMSO serial dilution plate is added to the assay plate containing […] of MRC-5 cells plated the day before (10000 cells per well). Seventeen μL of diluted virus is added to columns 2-12 and 14-24 and only D-MEM 5% FBS medium to uninfected control (columns 1 and 13) for a final DMSO concentration of 0.6%. The virus dilution is based on the amount of virus required to obtain the highest luciferase signal possible without CPE (generally between 0.05 and 1 μL of virus stock per well or MOI=0.02). The assay plates are incubated at 37° C. with 5% CO2 for 3 days. Fifteen μL of room temperature BIGlo buffer is added to room temperature assay plates also incubated at room temperature for 15 minutes. The plates are sealed with TopSeal for biosafety and the luminescence signal is read on the TopCount plate reader (Perkin-Elmer) or equivalent.

[3] = system: HCMV AD169 virus; assay: HCMV AD169 qPCR 96-Well Assay (Example C); assay type: cell-based; details: Human betaherpesvirus 5, AD169, MRC5, 72 h; qPCR of viral DNA, MRC-5 cells, 3 days
Description: The hCMV quantitative PCR (qPCR) assay evaluates the ability of a compound to inhibit, directly or indirectly, the replication of hCMV viral DNA during the first 72 h following the infection. Compounds that inhibit either entry or the hCMV polymerase are active in this assay. Compounds are tested in the qPCR assay in 96-well plates, using a 9-point dose-response with 8 compounds for each 96-well plate. The assay was adapted from the method described by Schnepf et al., Rapid determination of antiviral drug susceptibility of human cytomegalovirus by real-time PCR, Antiviral Research 81 (2009) 64-67.
Final Concentrations: • 10 mM Tris-HCl pH8.0 • 50 mM KCl • 2 mM MgCl2 • 0.45% Tween20 • 0.45% Nonidet P40
Serial dilutions of the DMSO stock compound solution are performed using DMSO in columns 2-10. DMSO alone is present in columns 1 and 11. Column 12 remains empty. Diluted compounds are further diluted with DMEM 5% FBS cell culture medium.
To perform the assay, 25 μL of inhibitor dilutions freshly prepared is added to the assay plate containing 50 μL of MRC-5 cells plated the day before (30000 cells per well). In a 9 point dose-response, column 1 contains mock infected cells and serves at negative control, with the appropriate concentration of DMSO, columns 2 to 10 contain compound dilutions and column 11 contains infected cells, with the appropriate concentration of DMSO and serves as the positive control. Column 12 serves for the standard curve in the qPCR process. Twenty-five μL of virus diluted in DMEM 5% FBS medium (to infect at MOI=0.05) is added to columns 2-11 and only D-MEM 5% FBS medium to uninfected control (column 1) for a final DMSO concentration of 0.6%. Incubate plates at 37° C. in 5% CO2 incubator for 3 days. Whole cell lysates are then obtained by adding 100 μL of Cell lysis buffer to each well including freshly added Proteinase K at a ratio of 1:5 (i.e. 200 μL Proteinase K:1000 μL Cell Lysis buffer) and incubating the assay plate at 56° C. for 1 h. Plates are centrifuged at 1300 rpm for 2 minutes to remove any condensation before proceeding with the qPCR.
The cell lysate is carefully pipetted up and down to mix well and diluted 1:40 in H2O to give a final dilution of 1:80 relative to the 100 μL of lysis buffer that Is added to the cells. 5 μL of diluted lysate is used for the qPCR reaction. An incubation of 5 minutes at 95° C. in a PCR machine is required to inactivate the Proteinase K. The cell lysates can be stored at −20° C. or used to perform qPCR immediately.
A 81 bp fragment of US17 gene from AD169 is amplified by PCR using primers qHCMV7 and qHCMV8. The PCR product is cloned into pCR4 TOPO vector (Invitrogen) and a clone harboring the insert is selected. A mitochondrial DNA is also added to normalize the HCMV copy number. Serial dilutions of the US17 plasmid and mitochondrial DNA are performed in heat-inactivated lysis buffer at the same dilution as the cell lysates (1:80). Usually, a standard curve ranging from 10E6 to 10E2 copies (per well) is suitable.
A typical qPCR reaction consists of the following:
A qPCR cycle consists of an initial denaturation of DNA and activation of the Taq enzyme at 95° C. for 10 min followed by 45 cycles of 15 seconds at 95° C. and 1 min at 60° C. Fluorescence is measured at each cycle, following the elongation step at 60° C. The reaction, data acquisition and analysis are performed using AppliedBiosystems 7500 Real time PCR system or other suitable real-time PCR system.

| Compound | EC50 [1] | EC50 [2] | EC50 [3] |
| --- | --- | --- | --- |
| O=C(Nc1ccc(-c2cnc(NC(=O)C3(c4cccc(Cl)c4)CCC3)[nH]2)cc1)c1cscn1 [Compound 1004] | 98 nM | 7 nM | – |
| O=C(Nc1ccc(-c2cnc(-c3cc(C(F)(F)F)cc(C(F)(F)F)c3)[nH]2)cc1)c1cscn1 [Compound 1016] | 135 nM | 35 nM | – |
| O=C(Nc1ccc(-c2cnc(-c3cccc(C(F)(F)F)c3)[nH]2)cc1)c1cscn1 [Compound 1018] | 380 nM | 100 nM | 270 nM |
| O=C(Nc1ccc(-c2nc(-c3cccc(C(F)(F)F)c3)nn2CCCO)cc1)c1cscn1 [Compound 1034] | 275 nM | 59 nM | – |
| O=C(Nc1ccc(-c2cccc(-c3cccc(Cl)c3)n2)cc1)c1cocn1 [Compound 1038] | 3100 nM | 1190 nM | – |
| O=C(O)CCn1nc(-c2cccc(Cl)c2)nc1-c1ccc(NC(=O)c2cscn2)cc1 [Compound 1041] | 4100 nM | 645 nM | – |
| O=C(Nc1ccc(-c2ncc(-c3cccc(Cl)c3)[nH]2)cc1)c1cscn1 [Compound 1045] | 345 nM | 66 nM | – |
| O=C(Nc1ccc(-c2ncc(-c3cccc(Cl)c3)[nH]2)cn1)c1cscn1 [Compound 1059] | – | 425 nM | – |
| Cc1cccc(-c2nnc(-c3ccc(NC(=O)c4cscn4)cc3)[nH]2)c1 [Compound 1070] | 510 nM | 93 nM | – |
| O=C(Nc1ccc(-c2nc(-c3cccc(C(F)(F)F)c3)nn2CCCN2CCOCC2)cc1)c1cscn1 [Compound 1077] | 903 nM | 180 nM | – |
| CC(c1cccc(Cl)c1)c1ncc(-c2ccc(NC(=O)c3cscn3)cc2)[nH]1 (centres unmarked) [Compound 1086] | 355 nM | 118 nM | – |
| CC(c1cccc(C(F)(F)F)c1)c1nc(-c2ccc(NC(=O)c3cscn3)cn2)c[nH]1 (centres unmarked) [Compound 1087] | – | 87 nM | – |
| CC(O)(c1cccc(C(F)(F)F)c1)c1nc(-c2ccc(NC(=O)c3cscn3)cn2)c[nH]1 (centres unmarked) [Compound 1092] | – | 203 nM | 620 nM |
| Cn1c(-c2ccc(NC(=O)c3cscn3)cc2)cnc1-c1cccc(C(F)(F)F)c1 [Compound 1096] | – | 665 nM | – |
| Cn1cc(-c2cccc(C(F)(F)F)c2)nc1-c1ccc(NC(=O)c2cscn2)cc1 [Compound 1097] | 280 nM | 60 nM | – |
| C#CCn1cc(-c2ccc(NC(=O)c3cscn3)cc2)nc1-c1cccc(C(F)(F)F)c1 [Compound 1098] | – | 100 nM | – |
| Cc1c(Cl)cccc1-c1cn(C)c(-c2ccc(NC(=O)c3cscn3)nc2)n1 [Compound 1103] | – | 1170 nM | 5800 nM |

| Compound | EC50 [1] | EC50 [2] | EC50 [3] |
| --- | --- | --- | --- |
| NC(=O)CCn1nc(-c2cccc(Cl)c2)nc1-c1ccc(NC(=O)c2cscn2)cc1 [Compound 1109] | – | 185 nM | 455 nM |
| CC(c1cccc(C(F)(F)F)c1)c1nc(-c2ccc(NC(=O)c3cscn3)cn2)cn1CCCO (centres unmarked) [Compound 1111] | – | 1260 nM | 665 nM |
| CC(O)(c1cccc(C(F)(F)F)c1)c1nc(-c2ccc(NC(=O)c3cscn3)cn2)cn1CCCO (centres unmarked) [Compound 1113] | – | 620 nM | 2100 nM |
| CC(O)(c1cccc(C(F)(F)F)c1)c1nc(-n2ccc(NC(=O)c3cscn3)cc2=O)c[nH]1 (centres unmarked) [Compound 1114] | – | 150 nM | 596 nM |
| CC(O)(c1cccc(C(F)(F)F)c1)c1nc(-c2ccc(NC(=O)c3cscn3)cn2)cn1CCCOCc1ccccc1 (centres unmarked) [Compound 1115] | – | 535 nM | 1160 nM |
| CC(c1cccc(C(F)(F)F)c1)c1nc(-n2ccc(NC(=O)c3cscn3)cc2=O)c[nH]1 (centres unmarked) [Compound 1116] | – | 27 nM | 160 nM |
| O=C(Nc1ccn(-c2nnc(-c3cccc(Cl)c3)[nH]2)c(=O)c1)c1cscn1 [Compound 1117] | – | 1450 nM | 3200 nM |
| CC(O)(c1cccc(C(F)(F)F)c1)c1nc(-n2ccc(NC(=O)c3cscn3)cc2=O)cn1CCCOCc1ccccc1 (centres unmarked) [Compound 1118] | – | 460 nM | 970 nM |
| CC(O)(c1cccc(C(F)(F)F)c1)c1nc(-n2ccc(NC(=O)c3cscn3)cc2=O)cn1CCCO (centres unmarked) [Compound 1119] | – | 770 nM | 2050 nM |
| O=C(Nc1ccn(-c2cccc(Oc3cccc(Cl)c3)n2)c(=O)c1)c1cscn1 [Compound 1120] | – | 92 nM | – |
| O=C(Nc1ccc(-c2nc(-c3cccc(Cl)c3)nn2CC(O)CO)cc1)c1cscn1 (centres unmarked) [Compound 1121] | – | 63 nM | 275 nM |
| O=C(Nc1ccn(-c2cccc(-c3cccc(Cl)c3)n2)c(=O)c1)c1cscn1 [Compound 1129] | – | – | 145 nM |
| CC(O)(c1cccc(C(F)(F)F)c1)c1cccc(-n2ccc(NC(=O)c3cscn3)cc2=O)n1 (centres unmarked) [Compound 1130] | – | – | 375 nM |
| O=C(Nc1ccc(-c2nnc(-c3cccc(Cl)c3)[nH]2)cc1)c1csnn1 [Compound 1133] | 2050 nM | – | – |
| O=C(Nc1ccc(-c2ncc(-c3cccc(C(F)(F)F)c3)[nH]2)cc1)c1csnn1 [Compound 1139] | 260 nM | 111 nM | – |
| O=C(Nc1ccc(-c2cnc(-c3cccc(C(F)(F)F)c3)[nH]2)cc1)c1cocn1 [Compound 1143] | 1220 nM | 245 nM | – |
